Test results taken from ChEMBL document CHEMBL5465560, “Selectivity Literature for EUbOPEN Chemogenomic Library” (2024).

What was measured:
[1] = molecular target: Serine/threonine-protein kinase PAK 4 (Homo sapiens, UniProt O96013); assay: Selectivity interaction (Kinase panel (Z-LYTE Assay)) EUB0001632a PAK4; settings: at 10 µM
[2] = molecular target: Activin receptor type-1-like (Homo sapiens) (UniProt P37023); assay: Selectivity interaction (LanthaScreen Eu Kinase Binding Assay) EUB0001632a ACVRL1; settings: at 10 µM
Activin receptor type-1-like (Homo sapiens), sequence (P37023 whole entry): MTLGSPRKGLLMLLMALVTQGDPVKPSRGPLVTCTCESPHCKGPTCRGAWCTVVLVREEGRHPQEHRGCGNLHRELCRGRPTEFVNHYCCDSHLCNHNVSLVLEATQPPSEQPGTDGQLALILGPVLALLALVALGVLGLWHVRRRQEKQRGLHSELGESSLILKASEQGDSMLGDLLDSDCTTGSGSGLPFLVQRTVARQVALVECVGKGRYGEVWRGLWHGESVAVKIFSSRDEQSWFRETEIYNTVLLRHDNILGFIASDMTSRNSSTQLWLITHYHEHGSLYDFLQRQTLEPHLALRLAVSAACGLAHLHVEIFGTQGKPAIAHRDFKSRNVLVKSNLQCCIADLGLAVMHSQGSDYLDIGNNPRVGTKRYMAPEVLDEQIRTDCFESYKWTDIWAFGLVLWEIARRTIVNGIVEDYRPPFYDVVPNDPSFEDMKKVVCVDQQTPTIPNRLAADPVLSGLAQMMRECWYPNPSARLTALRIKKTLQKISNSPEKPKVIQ

[3] = molecular target: Ribosomal protein S6 kinase alpha-3 (Homo sapiens, UniProt P51812); assay: Selectivity interaction (Kinase panel (Z-LYTE Assay)) EUB0001632a RPS6KA3; settings: at 10 µM
Ribosomal protein S6 kinase alpha-3, sequence (P51812 whole entry): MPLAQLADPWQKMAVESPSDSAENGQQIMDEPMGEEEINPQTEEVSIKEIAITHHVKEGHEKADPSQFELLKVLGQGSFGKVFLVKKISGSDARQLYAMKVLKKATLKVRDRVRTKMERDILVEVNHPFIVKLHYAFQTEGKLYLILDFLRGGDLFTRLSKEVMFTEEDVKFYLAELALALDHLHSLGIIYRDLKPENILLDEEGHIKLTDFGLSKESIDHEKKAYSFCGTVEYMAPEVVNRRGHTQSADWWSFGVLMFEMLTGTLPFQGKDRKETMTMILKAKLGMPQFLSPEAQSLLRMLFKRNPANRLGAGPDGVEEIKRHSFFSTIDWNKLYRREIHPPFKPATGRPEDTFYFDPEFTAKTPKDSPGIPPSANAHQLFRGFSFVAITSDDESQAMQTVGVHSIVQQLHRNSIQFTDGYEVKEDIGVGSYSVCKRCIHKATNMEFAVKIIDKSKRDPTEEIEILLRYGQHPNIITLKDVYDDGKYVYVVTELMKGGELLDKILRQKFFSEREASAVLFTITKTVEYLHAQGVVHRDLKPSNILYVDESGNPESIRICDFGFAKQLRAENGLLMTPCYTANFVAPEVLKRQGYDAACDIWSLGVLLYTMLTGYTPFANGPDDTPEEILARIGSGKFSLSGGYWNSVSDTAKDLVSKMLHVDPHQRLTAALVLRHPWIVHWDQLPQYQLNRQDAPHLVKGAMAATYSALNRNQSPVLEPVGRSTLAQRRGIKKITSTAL

[4] = molecular target: Mitogen-activated protein kinase kinase kinase kinase 4 (Homo sapiens, UniProt O95819); assay: Selectivity interaction (Kinase panel (literature)) EUB0001199aCl MAP4K4; settings: at 1 µM
[5] = molecular target: CDK3/cyclin E (Homo sapiens) (UniProt P24864+O96020+Q00526); assay: Selectivity interaction (Upstate Kinase Profiler service (Millipore)) EUB0000056c CDK3; type: protein-complex assay; settings: at 1 µM
CDK3/cyclin E (Homo sapiens), sequence (O96020 whole entry, looked up): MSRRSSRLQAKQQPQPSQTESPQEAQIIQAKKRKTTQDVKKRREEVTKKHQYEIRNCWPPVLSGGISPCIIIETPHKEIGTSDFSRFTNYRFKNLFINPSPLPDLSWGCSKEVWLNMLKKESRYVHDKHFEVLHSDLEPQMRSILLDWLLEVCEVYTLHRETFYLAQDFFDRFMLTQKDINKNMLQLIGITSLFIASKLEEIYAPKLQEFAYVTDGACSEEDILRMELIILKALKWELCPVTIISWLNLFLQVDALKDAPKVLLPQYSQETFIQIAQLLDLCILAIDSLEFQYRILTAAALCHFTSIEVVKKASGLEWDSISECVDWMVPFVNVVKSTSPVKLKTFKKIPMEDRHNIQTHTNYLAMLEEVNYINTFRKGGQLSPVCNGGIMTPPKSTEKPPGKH
CDK3/cyclin E (Homo sapiens), sequence (P24864 whole entry, looked up): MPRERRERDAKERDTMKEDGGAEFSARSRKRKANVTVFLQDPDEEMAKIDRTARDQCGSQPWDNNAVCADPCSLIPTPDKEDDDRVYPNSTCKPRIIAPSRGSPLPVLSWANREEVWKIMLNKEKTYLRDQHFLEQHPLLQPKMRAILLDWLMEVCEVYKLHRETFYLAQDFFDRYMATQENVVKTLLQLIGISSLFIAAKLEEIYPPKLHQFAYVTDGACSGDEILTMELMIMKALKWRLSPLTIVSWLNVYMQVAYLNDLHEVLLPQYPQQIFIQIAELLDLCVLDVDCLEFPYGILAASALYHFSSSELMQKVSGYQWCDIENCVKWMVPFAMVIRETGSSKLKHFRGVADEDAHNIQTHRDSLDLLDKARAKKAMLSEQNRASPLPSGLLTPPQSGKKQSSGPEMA
CDK3/cyclin E (Homo sapiens), sequence (Q00526 whole entry, looked up): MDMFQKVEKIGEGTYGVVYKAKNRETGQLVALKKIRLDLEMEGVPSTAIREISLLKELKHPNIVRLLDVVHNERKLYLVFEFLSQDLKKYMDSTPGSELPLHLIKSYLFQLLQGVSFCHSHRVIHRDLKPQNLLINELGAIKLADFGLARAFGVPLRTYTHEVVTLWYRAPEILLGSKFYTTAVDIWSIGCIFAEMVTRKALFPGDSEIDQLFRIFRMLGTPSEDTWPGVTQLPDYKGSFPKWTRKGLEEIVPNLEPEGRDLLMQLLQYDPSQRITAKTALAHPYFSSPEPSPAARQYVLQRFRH

[6] = molecular target: Serine/threonine-protein kinase Nek7 (Homo sapiens) (UniProt Q8TDX7); assay: Selectivity interaction (ActivX KiNativ screen (kinase selectivity in THP-1 cell lysates)) EUB0000639a NEK7; type: subcellular; settings: lysate, at 1 µM
Serine/threonine-protein kinase Nek7 (Homo sapiens), sequence (Q8TDX7 whole entry, looked up): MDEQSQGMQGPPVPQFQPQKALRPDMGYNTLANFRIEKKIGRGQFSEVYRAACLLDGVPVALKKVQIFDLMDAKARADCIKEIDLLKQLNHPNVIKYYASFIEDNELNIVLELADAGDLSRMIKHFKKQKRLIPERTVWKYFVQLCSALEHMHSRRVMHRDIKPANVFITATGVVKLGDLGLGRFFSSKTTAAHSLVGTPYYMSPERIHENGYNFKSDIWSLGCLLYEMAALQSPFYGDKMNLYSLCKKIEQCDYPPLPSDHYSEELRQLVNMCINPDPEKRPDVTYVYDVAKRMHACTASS

[7] = molecular target: T1, Testis-specific serine/threonine-protein kinase 3 (Homo sapiens) (UniProt Q96PN8); assay: Selectivity interaction (Kinase panel (Invitrogen)) EUB0000639a TSSK3; settings: at 200 nM
T1 sequence (whole entry): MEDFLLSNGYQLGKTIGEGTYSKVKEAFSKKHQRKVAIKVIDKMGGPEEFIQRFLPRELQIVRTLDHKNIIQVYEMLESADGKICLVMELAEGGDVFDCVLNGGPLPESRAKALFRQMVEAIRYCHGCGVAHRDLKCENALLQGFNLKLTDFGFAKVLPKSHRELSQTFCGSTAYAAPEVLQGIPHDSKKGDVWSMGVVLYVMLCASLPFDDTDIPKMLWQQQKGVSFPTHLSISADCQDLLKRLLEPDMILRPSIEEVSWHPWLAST

[8] = molecular target: Serine/threonine-protein kinase PLK1 (Homo sapiens, UniProt P53350); assay: Selectivity interaction (ActivX KiNativ screen (kinase selectivity in THP-1 cell lysates)) EUB0000639a PLK1; type: subcellular; settings: lysate, at 0.2 µM
Serine/threonine-protein kinase PLK1, sequence (P53350 whole entry): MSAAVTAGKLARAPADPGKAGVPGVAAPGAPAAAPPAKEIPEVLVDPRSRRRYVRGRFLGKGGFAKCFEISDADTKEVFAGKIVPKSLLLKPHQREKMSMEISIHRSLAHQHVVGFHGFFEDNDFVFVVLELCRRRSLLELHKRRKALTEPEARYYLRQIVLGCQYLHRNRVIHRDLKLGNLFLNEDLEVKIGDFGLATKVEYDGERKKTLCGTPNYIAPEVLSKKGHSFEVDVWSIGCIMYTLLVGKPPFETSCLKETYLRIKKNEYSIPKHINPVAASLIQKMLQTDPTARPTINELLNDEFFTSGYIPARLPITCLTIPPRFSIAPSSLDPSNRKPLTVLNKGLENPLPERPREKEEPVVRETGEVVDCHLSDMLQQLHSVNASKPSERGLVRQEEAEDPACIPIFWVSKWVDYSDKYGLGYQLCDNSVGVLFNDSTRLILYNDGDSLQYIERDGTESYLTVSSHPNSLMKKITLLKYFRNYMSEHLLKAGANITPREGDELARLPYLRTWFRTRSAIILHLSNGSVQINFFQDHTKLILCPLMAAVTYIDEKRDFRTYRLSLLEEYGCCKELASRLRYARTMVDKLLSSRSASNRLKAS

[9] = molecular target: Fibroblast growth factor receptor 1 (Homo sapiens, UniProt P11362); assay: Selectivity interaction (KinomeScan (DiscoverX)) EUB0000695a FGFR1; settings: at 100 nM
[10] = molecular target: T2, AP2-associated protein kinase 1 (Homo sapiens, UniProt Q2M2I8); assay: Selectivity interaction (KinomeScan (DiscoverX)) EUB0001049a AAK1; settings: at 1 µM
T2 sequence (Q2M2I8 whole entry, looked up): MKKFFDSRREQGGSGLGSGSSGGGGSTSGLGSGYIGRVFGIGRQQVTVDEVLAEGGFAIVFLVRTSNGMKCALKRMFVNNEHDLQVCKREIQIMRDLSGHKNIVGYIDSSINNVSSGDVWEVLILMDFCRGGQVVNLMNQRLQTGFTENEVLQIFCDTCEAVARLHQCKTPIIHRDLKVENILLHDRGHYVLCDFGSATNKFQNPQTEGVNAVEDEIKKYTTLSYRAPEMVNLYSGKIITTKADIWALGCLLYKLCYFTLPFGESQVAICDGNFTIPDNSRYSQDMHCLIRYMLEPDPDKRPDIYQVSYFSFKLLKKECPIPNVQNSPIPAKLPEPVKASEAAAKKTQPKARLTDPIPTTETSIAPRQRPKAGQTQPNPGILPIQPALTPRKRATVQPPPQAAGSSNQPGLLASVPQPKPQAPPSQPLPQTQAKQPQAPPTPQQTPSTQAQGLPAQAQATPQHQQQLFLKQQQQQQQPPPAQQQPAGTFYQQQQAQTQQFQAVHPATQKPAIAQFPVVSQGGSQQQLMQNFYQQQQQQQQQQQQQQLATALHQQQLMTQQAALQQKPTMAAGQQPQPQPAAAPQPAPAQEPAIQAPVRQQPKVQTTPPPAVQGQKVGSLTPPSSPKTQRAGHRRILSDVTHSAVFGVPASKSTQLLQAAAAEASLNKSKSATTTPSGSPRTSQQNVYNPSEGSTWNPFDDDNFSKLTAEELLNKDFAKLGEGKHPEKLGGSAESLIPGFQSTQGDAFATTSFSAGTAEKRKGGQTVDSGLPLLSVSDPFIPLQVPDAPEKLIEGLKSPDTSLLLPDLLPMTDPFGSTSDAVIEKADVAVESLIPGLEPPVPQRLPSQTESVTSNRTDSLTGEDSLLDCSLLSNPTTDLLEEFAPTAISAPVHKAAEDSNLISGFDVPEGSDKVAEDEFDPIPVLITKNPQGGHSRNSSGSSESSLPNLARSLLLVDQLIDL

[11] = molecular target: T3, Non-receptor tyrosine-protein kinase TNK1 (Homo sapiens) (UniProt Q13470); assay: Selectivity interaction (Ambit KINOMEscan and KiNATiv profiling in Jurkat cells) EUB0000090b TNK1; type: cell-based; settings: at 1 µM
T3 sequence (whole entry): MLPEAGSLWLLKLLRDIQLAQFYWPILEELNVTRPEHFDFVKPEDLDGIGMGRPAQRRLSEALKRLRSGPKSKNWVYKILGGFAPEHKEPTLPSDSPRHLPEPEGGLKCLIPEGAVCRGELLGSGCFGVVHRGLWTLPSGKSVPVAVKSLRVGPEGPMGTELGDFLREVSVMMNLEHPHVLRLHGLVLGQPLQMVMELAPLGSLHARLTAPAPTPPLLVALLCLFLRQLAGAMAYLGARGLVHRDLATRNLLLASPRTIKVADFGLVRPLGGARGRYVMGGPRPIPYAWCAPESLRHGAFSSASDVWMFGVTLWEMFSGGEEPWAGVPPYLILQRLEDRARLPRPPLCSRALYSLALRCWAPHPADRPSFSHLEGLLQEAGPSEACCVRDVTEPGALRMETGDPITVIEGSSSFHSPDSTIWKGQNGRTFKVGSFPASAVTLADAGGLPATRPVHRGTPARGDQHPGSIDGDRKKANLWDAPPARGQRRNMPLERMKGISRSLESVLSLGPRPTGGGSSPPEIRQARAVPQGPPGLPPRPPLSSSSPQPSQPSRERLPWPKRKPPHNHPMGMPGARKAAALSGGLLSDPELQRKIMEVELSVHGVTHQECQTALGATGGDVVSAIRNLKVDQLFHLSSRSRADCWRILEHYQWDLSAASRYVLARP

PXR (NR1I2) = PXR (NR1I2) (Homo sapiens, UniProt O75469); assay: Selectivity interaction (Panel of kinases, GPCRs, ion channels and transporters (enzymatic assay)) EUB0000223bCl NR1I2
PXR (NR1I2), sequence (O75469 whole entry): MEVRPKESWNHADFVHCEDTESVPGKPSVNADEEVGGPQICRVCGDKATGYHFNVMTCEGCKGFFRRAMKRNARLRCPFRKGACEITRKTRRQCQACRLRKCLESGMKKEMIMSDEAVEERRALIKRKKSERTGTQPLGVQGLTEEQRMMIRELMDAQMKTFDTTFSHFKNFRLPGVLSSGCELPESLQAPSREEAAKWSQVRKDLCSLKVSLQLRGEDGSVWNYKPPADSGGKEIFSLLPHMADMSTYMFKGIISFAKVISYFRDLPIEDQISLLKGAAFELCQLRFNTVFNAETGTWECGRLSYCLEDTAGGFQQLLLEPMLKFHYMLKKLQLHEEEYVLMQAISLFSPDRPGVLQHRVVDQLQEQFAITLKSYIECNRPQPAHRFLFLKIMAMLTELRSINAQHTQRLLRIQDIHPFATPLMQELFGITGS

[12] = molecular target: T2, AP2-associated protein kinase 1; assay: Selectivity interaction (KinomeScan (DiscoverX)) EUB0000655a AAK1; settings: at 10 µM
[13] = Selectivity interaction (KinomeScan (DiscoverX)) EUB0000618a CDPK1; settings: at 10 µM
[14] = molecular target: T4, Serine/threonine-protein kinase D2 (Homo sapiens) (UniProt Q9BZL6); assay: Selectivity interaction (KinomeScan (DiscoverX)) EUB0001619a PRKD2; settings: at 1 µM
T4 sequence (whole entry): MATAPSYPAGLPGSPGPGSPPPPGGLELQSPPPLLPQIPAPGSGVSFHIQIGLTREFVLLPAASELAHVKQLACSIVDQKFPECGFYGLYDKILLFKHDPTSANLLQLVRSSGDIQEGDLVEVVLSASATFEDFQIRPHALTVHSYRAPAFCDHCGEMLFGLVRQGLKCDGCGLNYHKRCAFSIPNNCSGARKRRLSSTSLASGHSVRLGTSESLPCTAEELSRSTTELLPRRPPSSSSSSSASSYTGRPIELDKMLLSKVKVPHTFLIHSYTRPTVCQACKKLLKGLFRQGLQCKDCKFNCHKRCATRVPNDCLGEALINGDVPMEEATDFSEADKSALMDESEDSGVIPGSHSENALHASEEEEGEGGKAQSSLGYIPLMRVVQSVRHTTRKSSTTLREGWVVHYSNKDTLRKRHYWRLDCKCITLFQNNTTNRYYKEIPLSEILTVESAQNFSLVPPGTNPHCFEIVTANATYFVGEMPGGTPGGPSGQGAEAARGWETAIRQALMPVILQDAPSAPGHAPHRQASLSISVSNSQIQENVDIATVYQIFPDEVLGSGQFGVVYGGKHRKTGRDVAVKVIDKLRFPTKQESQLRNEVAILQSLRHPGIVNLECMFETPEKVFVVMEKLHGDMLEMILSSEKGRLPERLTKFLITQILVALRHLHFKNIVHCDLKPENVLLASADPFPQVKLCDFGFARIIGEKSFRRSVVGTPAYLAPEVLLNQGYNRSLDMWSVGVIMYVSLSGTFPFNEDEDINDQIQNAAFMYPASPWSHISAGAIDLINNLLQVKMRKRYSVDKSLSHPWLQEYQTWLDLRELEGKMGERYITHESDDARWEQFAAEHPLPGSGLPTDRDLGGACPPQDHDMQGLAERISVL

Cn1cc(-n2cnc3c(NCc4nc5cc(Cl)c(Cl)cc5[nH]4)nc(N4CCOCC4)nc32)cn1
% of control [1]: 7.15% | % of inhibition [2]: -13% | % of control [3]: 4.92%

CN1Cc2nccc(-c3cn(C)nc3-c3ccc(F)cc3)c2C1=O
% of inhibition [4]: 65%

Cc1ccc(-c2ccc3c(ccc4sc5c(c43)NC[C@@H](C)NC5=O)n2)cn1
% of inhibition [5]: 5%

CC[C@@H]1[C@H](F)C(=O)N[C@@H]1COc1nccc2cc(C(N)=O)c(OC)cc12 [ZIMLOVISERTIB]
% of inhibition [6]: 2% | % of inhibition [7]: 16.3% | % of inhibition [8]: -0.2%

Cc1cc(F)c(C(=O)Nc2cccc(-c3nncn3C(C)C)n2)cc1-n1cnc(C2CC2)c1
% of control [9]: 100%

COc1cc(Nc2nc(C)cc(-c3cnn4nc(OC)ccc34)n2)cc(C(F)(F)F)c1
% of control [10]: 96%

CN(C)C/C=C/C(=O)Nc1ccc(C(=O)N2CCCC(Nc3ncc(Cl)c(-c4c[nH]c5ccccc45)n3)C2)cc1 (stereo not given)
% of control [11]: 96%

COc1cc(C(=O)N2CC[C@@H](O)[C@@H](N)C2)cc2nc(-c3cc4ccccc4n3CC3CC3)n(C)c12
XC50 (PXR (NR1I2)): > 50.1 µM

CN(C)CCOc1ccc(-c2nc(-c3ccncc3)c(-c3ccc4c(c3)CC/C4=N\O)[nH]2)cc1
% of control [12]: 76%

O[C@H]1CC[C@H](Nc2ncc3nc(Nc4c(F)cc(F)cc4F)n([C@H]4CCOC4)c3n2)CC1
% of control [13]: 1.5%

N#Cc1cccc(-c2c[nH]c3ncnc(N4CCOCC4)c23)c1
% of control [14]: 100%
